The values below come from patent US9402849B2, “Composition for moderating alcohol metabolism and for reducing the risk of alcohol induced diseases” (Tima Foundation, priority 2005, dated 2016).

Where “and” joins values, the source holds several entries; their conditions need not be identical. Equal entries are not always repeated.

One assay has as its system RPMI4788 cells. In words: Alcohol enhanced pulmonary metastasis of RPMI4788 cells in nude mice (nodules on lung surface). It counts as in vivo. On the procedure:
Ingredients of Supplement except Coenzyme Q10 were purchased from Sigma Aldrich Japan (Tokyo, Japan). Ten gram of dextrose, 1.0 gram of Vitamin C, 1.5 gram of L-glutamine, 500 mg of cysteine, 40 mg of riboflavin, 100 mg of succinic acid, 100 mg of fumaric acid, and 10 mg of niacin were dissolved in 100 ml of distilled water (Supplement Solution). One hundred mg of Coenzyme Q10 (Jarrow Formulas, Los Angels, Calif., USA) was dissolved in 14 ml of sesame oil.
Male, 6-week-old nude mice of BALB/cA-jcl-nu/nu class were purchased (Clea Japan Inc., Shizuoka, Japan) and allowed to acclimate for one week prior to the study. During the experiment the mice were maintained at a temperature of 23° C., 50% humidity and a specific-pathogen-free (SPF) condition.
RPM14788 cells derived from human colorectal cancer generate pulmonary metastasis in nude mouse (Moore G E & Koike A (1964), Cancer January, 17: 11-20; Kondo H. et al. (1987), Jpn J Cancer Res (Gann) 78, 12: 1400-1408). The cell line was subcultured in tissue culture flasks with culture medium of RPMI1640 solution (Nikken Biomedical Laboratory, Kyoto, Japan) supplemented with 10% Fetal Bovine Serum. (FBS) (Hycione Laboratories Inc., Logan, Utah) at 37° C., in an atmosphere of 100% humidity, 5% CO2 and 95% air. Following isolation of the cultured cells by 0.02% EDTA, a cell suspension was prepared using PBS of 0.01M; trypan blue staining confirmed cell viability over 98%.
To produce lung metastases, nude mice were injected cell suspension of 5×10^4/0.1 ml into tail vein. Twenty-eight days after the injection, all metastatic nodules on the lung surface were counted. The lung was fixed in 10% neutral formaldehyde and embedded in paraffin. Sections were stained with Hematoxylin-Eosin and examined histologically.
For testing the supplement, 320 μl of supplement solution and 50 μl of Co-Q10 dissolved sesame oil per mouse were administrated to the stomach by oral metal tube. For assaying the effects of Supplement+EtOH, one hour after the supplement administration, 7.0 ml/kg of ethanol were injected into the peritoneal cavity. Then 1 hour after the ethanol injection, 5×10^4/100 μl of RPM14788 cells were injected into the tail vein. The nude mice were sacrificed 28 days after the cell injection and the metastatic nodules on the lung surface were counted.

A further assay concerns YAC-1 cells. Description: NK cytotoxic activity of nude mouse splenocytes, short-term 51Cr-release assay. It counts as in vivo. The settings on record: for NK activity, % Control: EtOH versus control nude mice. On the procedure: A short-term ^51Cr-release assay was used to determine the natural killer (NK) cytotoxic activity. Mice were divided in following 3 groups; control, ethanol administration, and Supplement and ethanol administration. Twenty, four hours after the ethanol administration, splenocytes of the nude mouse were separated as single cell suspension. Target YAC-1 cells (1×10^7) were labeled by incubation with 200 μCi of ^51Cr for 2 hours at 37C. After being washed and then incubated for 2 hours at 37° C., the cells were supplemented in RPMI1640 medium. 20 μl of the labeled target cells and 100 μl of effector cells were mixed into a 96-well microliter plate (Sumitomo Bakelite Co., Ltd., Tokyo, Japan) at various effector/target cell ratios. After 4 hours of incubation, the plates were centrifuged and the radioactivity of the supernatant was measured by a gamma-counter. The percent of cytotoxicity was calculated as (experimental group release−spontaneous release/total release−spontaneous release). Statistical analysis of the results was conducted by t^2 test, and […] was defined as the level of significance.

As to `CCO` [ETOH, ethanol], in the assay with RPMI4788 cells (ETOH + 4788, 16 mice), the “Number of Metastatic nodules on the lung surface, Average” value was found to be 42.25 and the “Number of Metastatic nodules on the lung surface, Total” value is on record as 676. Also, in the assay with RPMI4788 cells (ETOH + 4788, single mouse, ethanol 7.0 ml/kg i.p. 1 h before cells, 28 days), the “Number of Metastatic nodules on the lung surface” value was 75 and 58 and 69 and 62 and 18 and 19 (2×) and 21 (2×) and 24 and 20 (2×) and 48 and 70 and 64 and 68. In addition, the “Total metastatic nodules minus 4788” value in the assay with RPMI4788 cells (ETOH + 4788, total minus control total) amounted to 251. The “Enhancement of metastatic potential of 4788 cell line” value in the assay with RPMI4788 cells (Ethanol + 4788 versus control) is listed as “approximately 60%”. The molecule further returned an NK activity in the assay with YAC-1 cells (EtOH) of 11.20%. In addition, in the assay with YAC-1 cells (listed as EtOH), the “NK activity, % Control” value is recorded as 45.5%. The “NK activity, % Control” value in the assay with YAC-1 cells (listed as Ethanol) was determined as 45.5%. Also, the “Average cont (51Cr release)” value with YAC-1 cells (EtOH, splenocytes 24 h after ethanol) is reported as 568.6.
